Values of other authors, collected in patent US20140093564A1, “PHARMACEUTICAL COMPOSITIONS OF COMBINATIONS OF DIPEPTIDYL PEPTIDASE-4 INHIBITORS WITH SIMVASTATIN” (MERCK SHARP & DOHME LTD., priority 2011, published 2014).

Conditions: oral administration, human Type 2 diabetics

SMILES | HbA1c levels | fasting glucose | postprandial glucose excursion
N#C[C@@H]1CCCN1C(=O)CNC12CC3CC(CC(O)(C3)C1)C2 [vildagliptin, (S)-1-[(3-hydroxy-1-adamantyl)amino]acetyl-2-cyano-pyrrolidine] | significantly reduced | reduce | reduce
N[C@@H](CC(=O)N1CCn2c(nnc2C(F)(F)F)C1)Cc1cc(F)c(F)cc1F [sitagliptin, (2R)-4-oxo-4-[3-(trifluoromethyl)-5,6-dihydro[1,2,4]triazolo[4,3-α]pyrazin-7(8H)-yl]-1-(2,4,5-trifluorophenyl)butan-2-amine] | significantly reduced | reduce | reduce
